Measurements from US12337010B2, “Compositions and methods of treatment using nicotinamide mononucleotide” (Washington University, priority 2017, dated 2025).

Target: T1, Slc12a8 (Mus musculus, UniProt Q8VI23)
T1 construct: NIH3T3 cells were transfected with 5 μg of pCXN2 carrying the full-length Slc12a8 cDNA (Slc12a8-OE); expressed in transfected cells
T1 sequence (Q8VI23 1-705): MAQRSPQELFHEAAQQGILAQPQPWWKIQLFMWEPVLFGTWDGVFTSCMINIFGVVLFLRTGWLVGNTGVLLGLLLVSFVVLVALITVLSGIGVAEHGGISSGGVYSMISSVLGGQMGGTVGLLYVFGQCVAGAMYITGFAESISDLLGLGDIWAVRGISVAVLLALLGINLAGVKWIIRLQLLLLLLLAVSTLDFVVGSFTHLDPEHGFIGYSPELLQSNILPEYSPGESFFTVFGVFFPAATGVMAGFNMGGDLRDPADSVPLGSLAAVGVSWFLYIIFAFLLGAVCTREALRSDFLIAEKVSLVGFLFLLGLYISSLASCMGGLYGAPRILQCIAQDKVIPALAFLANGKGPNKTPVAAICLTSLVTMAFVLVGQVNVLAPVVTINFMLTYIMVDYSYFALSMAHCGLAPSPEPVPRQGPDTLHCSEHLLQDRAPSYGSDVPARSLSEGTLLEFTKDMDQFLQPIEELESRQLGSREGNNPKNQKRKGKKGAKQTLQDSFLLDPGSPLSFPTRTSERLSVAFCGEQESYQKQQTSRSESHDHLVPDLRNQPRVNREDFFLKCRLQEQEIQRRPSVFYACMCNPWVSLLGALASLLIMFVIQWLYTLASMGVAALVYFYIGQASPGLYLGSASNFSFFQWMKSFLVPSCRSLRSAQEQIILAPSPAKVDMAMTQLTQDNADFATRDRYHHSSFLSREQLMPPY
Test: 3H-NMN uptake and displacement in Slc12a8-OE proteoliposomes
Assay type: biochemical
Method: Proteoliposome experiments. Proteoliposome preparation was carried out as previously described (Bruzzone, S., et al., FASEB J., 15, 10-12, 2001). Briefly, 2×10^7 control or Slc12a8-OE NIH3T3 cells were resuspended in 1 ml of lysis buffer (10 mM Tris-HCl, pH 8.3, 150 mM NaCl, 0.3 M sucrose, protease inhibitor cocktail) and disrupted using a homogenizer. The lysate was centrifuged for 10 min at 3,000×g, and the supernatant was collected and centrifuged for 15 min at 100,000×g. The membrane proteins were solubilized with buffer A (10 mM Tris-HCl, pH 8.3, containing 150 mM NaCl and 0.5% n-octyl β-glucopyranoside). Separately, total lipids were extracted from hemoglobin-free erythrocyte membranes (ghosts) as described previously (Franco, L., et al., FASEB J., 12, 1507-1520, 1998). Total lipids from human erythrocyte membranes (3 mg) were dried and resuspended with 600 μl of solubilized membrane proteins (at approximately 0.7 mg/ml protein concentration). The resulting emulsions were sonicated in ice for 1 min and dialyzed against 5 liters of buffer A without n-octyl-β-glucopyranoside (dialysis buffer) for 24 h at 4° C. Proteoliposomes were recovered, centrifuged for 15 min at 100,000×g, resuspended in 900 μl dialysis buffer and passed 5 times through a 30-gauge needle.
To examine the Na+-dependency of Slc12a8, NaCl was replaced with 150 mM LiCl. All steps were carried out at 4° C. Proteoliposomes (30 μl in triplicate for each condition) were incubated for 2, 5 or 10 min at 25° C. in the presence of […] 3H-β-NMN (specific activity, 9.1 Ci/mmole) with or without label-free nucleotides (NMN, NR, NAD, AMP; NAM or NaMN). At the end of incubations, samples were filtered on a glass fiber paper. Filters were washed with 3 ml of dialysis buffer, dried, and counted for radioactivity.
Proteoliposomes were produced by combining the membrane fractions of Slc12a8-OE or control NIH3T3 cells with the phospholipid bilayers derived from deproteinized erythrocyte plasma membrane as described supra using 22 nM, ^3H-NMN at 25° C. in proteoliposomes produced from plasma membrane fractions of Slc12a8-OE and control NIH3T3 cells in transport buffer (n=3; analyzed by one-way ANOVA with Sidak's multiple comparisons test).
In order to determine substrate specificity of Slc12a8, these Slc12a8-OE proteoliposomes were used for displacement experiments with ^3H-NMN and various cold NAD+-related compounds. Uptake of ^3H-NMN (150 nM, 25° C.) was measured at 2 min in Slc12a8-OE proteoliposomes in the presence of 150 μM competing cold compounds (NMN, NR, NAD, AMP, NaMN, and nicotinamide) in transport buffer (n=3, analyzed by ANOVA with Dunnett's test). […] Data are shown as percentages of ^3H-NMN uptake (n=3; IC50 was calculated by non-linear regression analysis).
In these experiments, the sodium ion dependency of Slc12a8 for NMN transport was evaluated using the proteoliposome system.

NC(=O)c1ccc[n+]([C@@H]2O[C@H](COP(=O)([O-])O)[C@@H](O)[C@H]2O)c1 [NMN, nicotinamide mononucleotide]
displacement of 3H-NMN (150 μM cold compound, 150 nM 3H-NMN, 25° C., 2 min): complete displacement | IC50 (Slc12a8-OE proteoliposome system): 22.8 ± 3.6 µM
